Tests used:
[1] = molecular target: T1, recombinant human LTA4 hydrolase (rhLTA4H) (Homo sapiens, UniProt P09960); assay: Recombinant human LTA4 hydrolase assay for LTA4 hydrolase inhibitor activity; assay type: biochemical; details: recombinant human LTA4H, LTB4 quantified by enzyme-linked immunoassay; average of one to three determinations; read-out: IC50
T1 construct: made in house; host or cells: Spodoptera frugiperda (Sf-9) cells, baculovirus (pFastBac1)
T1 sequence (P09960 1-611): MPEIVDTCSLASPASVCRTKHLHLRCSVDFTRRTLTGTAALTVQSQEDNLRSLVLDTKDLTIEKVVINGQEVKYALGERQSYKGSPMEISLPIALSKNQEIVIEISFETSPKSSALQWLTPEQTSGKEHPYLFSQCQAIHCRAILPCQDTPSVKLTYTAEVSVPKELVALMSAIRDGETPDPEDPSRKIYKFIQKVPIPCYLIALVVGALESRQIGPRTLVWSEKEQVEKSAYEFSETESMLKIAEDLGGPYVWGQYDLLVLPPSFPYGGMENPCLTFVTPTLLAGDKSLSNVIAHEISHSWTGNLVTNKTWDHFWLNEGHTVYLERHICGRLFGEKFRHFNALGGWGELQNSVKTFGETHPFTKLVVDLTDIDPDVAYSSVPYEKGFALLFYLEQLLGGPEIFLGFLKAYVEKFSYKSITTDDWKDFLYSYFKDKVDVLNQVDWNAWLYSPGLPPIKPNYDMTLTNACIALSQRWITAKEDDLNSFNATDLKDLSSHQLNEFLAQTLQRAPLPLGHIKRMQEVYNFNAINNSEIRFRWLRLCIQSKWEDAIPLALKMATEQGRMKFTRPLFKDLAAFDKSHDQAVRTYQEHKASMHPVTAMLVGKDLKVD
Summary of the method: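 Sf-9-expressed rhLTA4H (36 ng) preincubated 10 min at rt with compound in 0.1 M potassium phosphate pH 7.4, 5 mg/mL fatty-acid-free BSA; 9 ng LTA4 free acid added, 10 min at rt in 225 μL. LTB4 measured by enzyme immunoassay; IC50 from 4-parameter fit, mean of one to three determinations.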

[2] = test system: LTB4 production by calcium ionophore-stimulated murine blood; assay: LTB4 production by calcium ionophore-stimulated murine blood for LTA4H inhibitor activity; assay type: cell-based, CD-1 mice; details: diluted CD-1 mouse whole blood, calcium ionophore A23187, LTB4 by enzyme-linked immunoassay
Procedure: LTB4 Production by Calcium Ionophore-Stimulated Murine Blood for LTA4H Inhibitor Activity
CD-1 mice were sacrificed, and blood was collected in heparin-containing syringes by cardiac puncture. The blood was diluted 1:15 with RPMI-1640 medium, and 200-μL aliquots of the diluted blood were added to wells of a 96-well microtiter plate. LTA4H inhibitor test compounds were prepared at different concentrations in RPMI-1640 medium containing […], and 20 μL of each test solution was added to a well containing diluted whole blood (final DMSO concentration of 0.1%). After the microtiter plate contents were incubated for 15 min at 37° C. in a humidified incubator, calcium ionophore A23187 (Sigma Chemical Co., St. Louis, Mo.) was added to each sample well (final concentration=20 ng/mL). The incubation was continued under the same conditions for an additional 10 min to allow LTB4 formation. The reaction was terminated by centrifugation (833×g, 10 min at 4° C.), and supernatants were analyzed for LTB4 by a commercially available enzyme-linked immunoassay (Cayman Chemical Co.) according to the manufacturer's instructions. Positive controls, under essentially identical conditions but without addition of an inhibitor compound, and negative unstimulated controls, containing all assay components except calcium ionophore, were routinely run in each experiment. IC50 values were determined by fitting the activity data at different compound concentrations to a 4-parameter equation using the Grafit program (Erithacus software).

| Structure (SMILES) | IC50 [1] [nM] | IC50 [2] [nM] |
| --- | --- | --- |
| CN(C(=O)Oc1ccc(OCCN2CCC(O)(c3ccccc3)CC2)cc1)c1ccccc1 [Example 40, Methyl-phenyl-carbamic acid 4-[2-(4-hydroxy-4-phenyl-piperidin-1-yl)-ethoxy]-phenyl ester] | 73 | 150 |
| O=C(O)C1CCN(Cc2ccc(OCCCc3ccccc3)cc2)CC1 [Example 112, 1-[4-(3-Phenyl-propoxy)-benzyl]-piperidine-4-carboxylic acid] | 4 | 10 |
| O=C(O)C1CCN(CCOc2ccc(OCCCc3ccccc3)cc2)CC1 [Example 117, 1-{2-[4-(3-Phenyl-propoxy)-phenoxy]-ethyl}-piperidine-4-carboxylic acid] | 51 | 79 |

Other lines, results leading:

| IC50 [1] [nM] | IC50 [2] [nM] | Structure (SMILES) |
| --- | --- | --- |
| 17 | 123 | O=C1CCCN1C1CCN(Cc2ccc(OCCc3ccccc3)cc2)CC1 [Example 99, 1-[1-(4-Phenethyloxy-benzyl)-piperidin-4-yl]-pyrrolidin-2-one] |
| 19 | 181 | O=C(O)C1CCN(CCc2ccc(OCCc3ccccc3)cc2)CC1 [Example 81, 1-[2-(4-Phenethyloxy-phenyl)-ethyl]-piperidine-4-carboxylic acid] |
| 10 | 7 | O=C(O)C1CCN(Cc2ccc(OCCc3ccccc3)cc2)CC1 [Example 96, 1-(4-Phenethyloxy-benzyl)-piperidine-4-carboxylic acid] |

Source: patent publication US20060223792A1, “Phenyl and pyridyl LTA4H modulators” (priority 2005, published 2006)
